The values below come from patent US10316039B2, “P2X3 and/or P2X2/3 compounds and methods” (Asana Biosciences, LLC, priority 2013, dated 2019).

The structures appear in SMILES notation.

The target of experiment [1] is T1, P2X3 (UniProt P56373).
T1 sequence (P56373 1-397): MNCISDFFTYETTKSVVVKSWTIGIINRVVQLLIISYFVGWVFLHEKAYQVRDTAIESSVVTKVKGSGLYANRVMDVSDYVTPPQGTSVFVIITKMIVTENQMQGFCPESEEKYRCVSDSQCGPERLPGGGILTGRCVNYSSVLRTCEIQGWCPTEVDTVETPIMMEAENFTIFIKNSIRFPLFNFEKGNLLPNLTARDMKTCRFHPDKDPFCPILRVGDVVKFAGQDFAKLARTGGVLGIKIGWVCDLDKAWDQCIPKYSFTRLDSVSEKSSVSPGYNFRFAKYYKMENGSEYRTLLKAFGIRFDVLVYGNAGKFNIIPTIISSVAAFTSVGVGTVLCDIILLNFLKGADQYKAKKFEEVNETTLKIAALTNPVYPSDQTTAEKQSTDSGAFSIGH
In words: P2X3 FLIPR intracellular calcium assay. Format: cell-based. The following applies: agonist at EC75, species (human or rat) not given. From the text:
The FLIPR® assay utilizes cells which express human or rat P2X3 or P2X2/3 receptors. […] The PCR product obtained containing the protein coding sequence of rat P2X2 was cloned into EcoRV-digested and dephosphorylated vector pIRES-puro3 within the multiple cloning site (MCS). See, FIG. 1A.
Rat P2X3 (NCBI Accession No: X91167) was amplified by PCR from rat brain cDNA. The PCR product obtained containing the protein coding sequence of rat P2X3 was cloned into EcoRV-digested and dephosphorylated vector pCDNA-Hygro within the multiple cloning site (MCS) (FIG. 1B). Rat P2X3 cloned into pcDNA-Hygro was then subcloned into pcDNA-5/TO at HindIII (5′) and XhoI (3′) sites within the multiple cloning site (MCS) of the vector (FIG. 1C).
(§1) Transfection was carried out using super-coiled constructs (purified using QIAGEN kit) in antibiotic free, serum free DMEM using Lipofectamine® 2000 (Invitrogen) transfection agent. The DNA constructs rat P2X2 in pIRES-Puro3 and rat P2X3 in pCDNA5/TO were co-transfected into TRex293 cells in order to generate the rP2X2/3 stable line. 50 μg/mL hygromycin (Invitrogen) and 0.5 μg/mL puromycin (Fermentek) were used for selection of stable clones of rP2X2/3. Rat P2X3 in pCDNA5/TO DNA construct was transfected to CHO-TRex cells to generate the rP2×3 stable line and 500 μg/mL hygromycin (Invitrogen) was used as selection antibiotic. Transfected stable colonies were then functionally verified and robust clones suitable for assay were clonally purified through dilutions.
(§2) Cryo-vial containing 6×10^6 cells (human P2X3-HEK/human P2X2/3-TRex293/rat P2X2/3-TRex293/rat P2X3 TRex-CHO) was thawed in a 37° C. water bath. Cells were suspended in 20 mL of respective cell plating media (See annexure for composition) in a 50 mL centrifuge tube. The cell viability was checked with the help of Trypan Blue dye. Upon washing, cells were plated in a black 384-well clear bottomed, sterile poly-D-lysine coated plate such that, each well contained 10,000 cells (15,000/well for hP2X3) in 30 μL cell plating media. The plate was incubated in a 5% CO2 incubator at 37° C. for 24 h.
(§3) The next day, prior to the assay, the cell plating media was removed from each well by decanting and gentle tapping. Thirty μL of FLIPR Calcium 4 dye solution was added to each well. The plate was incubated at 37° C. for 45 min (60 min for hP2X3). The plate was next equilibrated at room temperature for 15 minutes before placing it in a 384 well FLIPR for the assay.
Dilutions were mixed with assay buffer just before performing the assay.
(§4) Compounds were added to the respective wells of the assay-ready cell plate with the help of the FLIPR and fluorescence readings were captured for 5 min to observe any possible agonistic property of the compounds. The plate was then incubated at room temperature for 15 min. The cells were stimulated with respective agonist EC75 concentration and the fluorescence readings were captured for another 5 min by FLIPR. The difference in fluorescence readings in presence of the compounds were compared with that of the control wells (wells having no compound) to calculate the inhibitory potency of the compounds. The IC50 values of the compounds were determined using the Graph pad Prism software.
(vi) Dye Solution Composition • 1×FLIPR Calcium 4 dye in assay buffer (Molecular devices Cat# R8141) • 1.8 mM Probenecid (Sigma Cat# P8761) • pH adjusted to 7.4

The target in experiment [2] is T2, P2X2/3 (Homo sapiens, UniProt P56373+Q9UBL9).
T2 sequence (Q9UBL9 1-471): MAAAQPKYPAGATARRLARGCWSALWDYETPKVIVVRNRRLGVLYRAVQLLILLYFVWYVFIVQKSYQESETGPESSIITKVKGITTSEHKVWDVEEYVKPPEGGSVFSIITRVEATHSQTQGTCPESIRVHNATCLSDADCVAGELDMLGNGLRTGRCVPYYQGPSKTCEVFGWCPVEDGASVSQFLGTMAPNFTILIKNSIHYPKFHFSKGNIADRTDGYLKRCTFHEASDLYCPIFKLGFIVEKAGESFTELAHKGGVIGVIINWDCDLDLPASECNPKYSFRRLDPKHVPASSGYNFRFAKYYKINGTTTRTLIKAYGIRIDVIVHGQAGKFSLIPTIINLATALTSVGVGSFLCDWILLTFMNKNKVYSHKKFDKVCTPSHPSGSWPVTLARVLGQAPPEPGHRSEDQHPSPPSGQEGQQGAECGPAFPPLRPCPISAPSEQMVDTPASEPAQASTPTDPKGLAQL
T2 sequence (P56373 1-397): T1 sequence (P56373 1-397)
In words: P2X2/3 FLIPR intracellular calcium assay. The experiment is classed as cell-based. Particulars: agonist at EC75, species (human or rat) not given.
Text: The FLIPR® assay utilizes cells which express human or rat P2X3 or P2X2/3 receptors. Recombinant cells expressing hP2X3 (Cat#6188) and hP2X2/3 (Cat#6179) were procured from Chantest Corp. Rat P2X2 (NCBI Accession No: U14414) was amplified by PCR from PC12 cDNA (a rat adrenal medulla cell line). The PCR product obtained containing the protein coding sequence of rat P2X2 was cloned into EcoRV-digested and dephosphorylated vector pIRES-puro3 within the multiple cloning site (MCS). See, FIG. 1A.
as §1, §2, §3
Compounds were dissolved in DMSO and serially diluted following 11 point half log (3.16 fold) dilution with a starting concentration of 2 mM. Dilutions were mixed with assay buffer just before performing the assay.
as §4
(ii) Cell Plating Media for hP2X3-HEK and hP2X2/3-TRex293 Cells • DMEM/F12 (1:1) HAM media (Invitrogen; Cat#11039) • 1×NEAA (Invitrogen; Cat#11140) • 25 mM HEPES (Invitrogen; Cat#15630) • 1 mM sodium pyruvate (Invitrogen; Cat#11360) • 10% tetracycline negative FBS (PAA; Cat# A15-209) • 1 μg/mL doxycycline (Clontech; Cat#63131) [for hP2X2/3-TRex293 cells only]
(iii) Cell Plating Media for rP2X2/3-TRex293 Cells • DMEM media (Invitrogen; Cat#11965) • 25 mM HEPES (Invitrogen; Cat#15630) • 10% tetracycline negative FBS (PAA; Cat# A15-209) • 1 μg/mL Doxycycline (Clontech; Cat#63131)
(v) Assay Buffer Composition • HBSS (Invitrogen Cat#14025) • 20 mM HEPES (Invitrogen Cat#15630) • 0.01% F127 (Sigma Cat# P2443) • 1.8 mM CaCl2 (Sigma Cat# C5080) • pH adjusted to 7.4 […]
In general terms: Calcium assays in cells follow changes in intracellular calcium, usually with a dye or a luminescent sensor.

Turning to `Cc1ccc(CNC(=O)c2cc(N3CCN(C(N)=O)CC3)c3ncc(-c4ccc(C)s4)n3c2)cn1` [Example 13, 8-(4-Carbamoylpiperazin-1-yl)-N-((6-methylpyridin-3-yl)methyl)-3-(5-methylthiophen-2-yl)imidazo[1,2-a]pyridine-6-carboxamide], the results for the half-maximal inhibitory concentration (IC50) in experiment [1] and in experiment [2] were greater than 10 µM and 0.1 to 1 µM, respectively.

As for `Cc1ccc(-c2cnc3c(-n4nncc4C(F)F)cc(C(=O)N[C@@H](C)c4nnco4)cn23)s1` [Example 14, (S)—N-(1-(1,3,4-Oxadiazol-2-yl)ethyl)-8-(5-(difluoromethyl)-1H-1,2,3-triazol-1-yl)-3-(5-methylthiophen-2-yl)imidazo[1,2-a]pyridine-6-carboxamide], the IC50 (in general, the concentration that inhibits the measured activity by half) in experiment [1] lay in the range of 0.001 to 0.1 µM; in experiment [2], 0.1 to 1 µM.

Turning to `Cc1ccccc1-c1cnc2c(N3CCC(C)CC3)cc(C(=O)N[C@@H](C)c3nnc[nH]3)cn12` [Example 15, (S)—N-(1-(4H-1,2,4-Triazol-3-yl)ethyl)-8-(4-methylpiperidin-1-yl)-3-(o-tolyl)imidazo[1,2-a]pyridine-6-carboxamide], the IC50 in experiment [1] lay within 0.1 to 1 µM; in experiment [2] it was 1 to 10 µM.

`Cc1ccc(CNC(=O)c2cc(-n3nnnc3C3CC3)c3ncc(-c4ccc(C)s4)n3c2)cn1` [Example 16, 8-(5-Cyclopropyl-1H-tetrazol-1-yl)-N-((6-methylpyridin-3-yl)methyl)-3-(5-methylthiophen-2-yl)imidazo[1,2-a]pyridine-6-carboxamide]: the IC50 in experiment [1] was greater than 10 µM; in experiment [2], 0.1 to 1 µM.

In the case of `Cc1ccc(CNC(=O)c2cc(-n3nnnc3CO)c3ncc(-c4ccc(C)s4)n3c2)cn1` [Example 17, 8-(5-(Hydroxymethyl)-1H-tetrazol-1-yl)-N-((6-methylpyridin-3-yl)methyl)-3-(5-methylthiophen-2-yl)imidazo[1,2-a]pyridine-6-carboxamide], the IC50 in experiment [1] and in experiment [2] was 0.1 to 1 µM in each case.

Regarding `Cc1ccc(CNC(=O)c2cc(-n3nnnc3C(F)F)c3ncc(-c4ccc(C)s4)n3c2)cn1` [Example 18, 8-(5-(Difluoromethyl)-1H-tetrazol-1-yl)-N-((6-methylpyridin-3-yl)methyl)-3-(5-methylthiophen-2-yl)imidazo[1,2-a]pyridine-6-carboxamide], the IC50 in experiment [1] and in experiment [2] was 0.001 to 0.1 µM throughout.

Consider `Cc1ccc(-c2cnc3c(N(C)C(=O)C(C)C)cc(C(=O)N[C@@H](C)c4nnc[nH]4)cn23)s1` [Example 20, (S)—N-(1-(4H-1,2,4-Triazol-3-yl)ethyl)-8-(N-methylisobutyramido)-3-(5-methylthiophen-2-yl)imidazo[1,2-a]pyridine-6-carboxamide], for which the IC50 in experiment [1] lay within 0.001 to 0.1 µM; in experiment [2], 0.1 to 1 µM.

In the case of `CCc1nnc(-c2cc(C(=O)NCc3ccc(C)nc3)cn3c(-c4ccc(C)s4)cnc23)o1` [Example 21], the IC50 in experiment [1] is 0.001 to 0.1 µM; in experiment [2] it was 0.1 to 1 µM.

Turning to `CCc1cnnn1-c1cc(C(=O)N[C@@H](C)c2nnc[nH]2)cn2c(-c3ccc(C)s3)cnc12` [Example 23], the IC50 in experiment [1] fell in the range of 0.001 to 0.1 µM; in experiment [2], 0.1 to 1 µM.

On to `CCc1cnnn1-c1cc(C(=O)NCc2cnc(C)cn2)cn2c(-c3ccc(C)s3)cnc12` [Example 24], for which the IC50 in experiment [1] and in experiment [2] was 0.001 to 0.1 µM throughout.

As for `Cc1ccc(CNC(=O)c2cc(-n3nncc3C3CC3)c3ncc(-c4ccc(C)s4)n3c2)cn1` [Example 25], the IC50 in experiment [1] and in experiment [2] was 0.001 to 0.1 µM in each case.

As to `Cc1ccc(-c2cnc3c(-n4nncc4C(F)(F)F)cc(C(=O)N[C@@H](C)c4nnc[nH]4)cn23)s1` [Example 26], the IC50 in experiment [1] and in experiment [2] was 0.001 to 0.1 µM throughout.

Take `Cc1ccc(CNC(=O)c2cc(-n3nncc3C)c3ncc(-c4ccc(C)s4)n3c2)cn1` [Example 28]: the IC50 in experiment [1] and in experiment [2] was 0.001 to 0.1 µM each time.

As for `Cc1ccc(-c2cnc3c(-n4nncc4C)cc(C(=O)N[C@@H](C)c4nnc[nH]4)cn23)s1` [Example 29], the IC50 was 0.001 to 0.1 µM in experiment [1] and 0.1 to 1 µM in experiment [2].

In the case of `Cc1ccc(CNC(=O)c2cc(-n3nncc3C(F)(F)F)c3ncc(-c4ccc(C)s4)n3c2)cn1` [Example 30], the IC50 in experiment [1] and in experiment [2] was 0.001 to 0.1 µM throughout.

`Cc1ncc(CNC(=O)c2cc(-n3nncc3C(F)F)c3ncc(-c4ccc(C)s4)n3c2)cn1` [Example 31]: the IC50 in experiment [1] and in experiment [2] was 0.001 to 0.1 µM in each case.

`Cc1cnc(CNC(=O)c2cc(-n3nncc3C(F)F)c3ncc(-c4ccc(C)s4)n3c2)cn1` [Example 32]: the IC50 in experiment [1] and in experiment [2] was 0.001 to 0.1 µM each time.

As to `CCc1cnnn1-c1cc(C(=O)NCc2cnc(C)nc2)cn2c(-c3ccc(C)s3)cnc12` [Example 33], the IC50 in experiment [1] and in experiment [2] was 0.001 to 0.1 µM throughout.

As for `Cc1ccc(-c2cnc3c(-n4nncc4C4CC4)cc(C(=O)N[C@@H](C)c4nnc[nH]4)cn23)s1` [Example 34], the IC50 in experiment [1] and in experiment [2] was 0.001 to 0.1 µM each time.

In the case of `COc1ncc(CNC(=O)c2cc(-n3nncc3C(F)F)c3ncc(-c4ccc(C)s4)n3c2)cn1` [Example 35], the IC50 in experiment [1] and in experiment [2] was 0.001 to 0.1 µM throughout.
